From PMC6803965, “A New Class of β–Pyrrolidino-1,2,3-Triazole Derivatives as β-Adrenergic Receptor Inhibitors: Synthesis, Pharmacological, and Docking Studies” (Molecules, 2019)
Converted amounts (≈) assume the structure as drawn. Where two headings read alike, the source gives them in different places.

What was measured:
Malassezia pachydermatis = test: Antimicrobial well method, zone of inhibition; type: cell-based
Protocol: (§1) Antimicrobial activity was carried out as described previously. Briefly, 20 mL of sterile Mueller Hinton agar (MHA) was poured in the petri plates and kept for solidification. After solidification, the test cultures were swabbed on the top of the media and kept for 10 min to dry. The required concentration (1 mg/well) of synthesized compounds 5a–l was added to each well and left for 30 min at RT for compound diffusion. Ketoconazole (fungi) and streptomycin (bacteria) used for positive controls. The zone of inhibition was recorded in mm and the experiment was repeated twice.

A549 cells = test: Cytotoxicity, aqueous one solution reagent; type: cell-based; settings: for IC50: 24 h treatment, read-out: IC50 against A549
Protocol: (§2) The cytotoxic study was carried out as reported previously. Briefly, IMR90, HepG-2, and A549 cells were grown in DMEM (Dulbecco’s Modified Eagle Medium) that contained 10% fetal bovine serum and 1% antibiotics. A total of 15 × 10^3 cells/well were seeded in 96-well plates and incubated under humidified conditions. Cells were treated with varying concentrations of synthesized triazoles for 24 h. After a 24 h treatment, 20 µL aqueous one solution reagent was added to each well and incubated for 3–4 h under a humidified condition. For IMR90 cells, MTT (MTT = 3-(4,5-dimethyl-2-thiazolyl)-2,5-diphenyl-2H-tetrazolium bromide) (5 mg/mL) was added and incubated for 3–4 h in the dark. After incubation, 100 µL of a 10% SDS (Sodium Dodecyl Sulfate) solution (0.01% HCl) was added to each well. The data was taken using an ELISA (enzyme-linked immunosorbent assay) reader at the absorbance of 490 nm for HepG-2 and A549 cells and 570 nm for IMR90 cells. The cell death was calculated using the following formula: Inhibition (%) = ((A − B)/A) × 100 (A—control group, B—treated group).

HepG-2 cells = test: Cytotoxicity, aqueous one solution reagent; type: cell-based; settings: for IC50: read-out: IC50 against HepG-2
Protocol: as §2

Candida albicans = test: Antimicrobial well method, zone of inhibition; type: cell-based; settings: 1 mg/well
Protocol: as §1

Enterobacter aerogenes [1] = test: Antimicrobial well method, zone of inhibition; type: cell-based; settings: Klebsiella aerogenes
Protocol: as §1

Klebsiella pneumoniae [2] = test: Antimicrobial well method, zone of inhibition; type: cell-based
Protocol: as §1

Micrococcus luteus [3] = test: Antimicrobial well method, zone of inhibition; type: cell-based
Protocol: as §1

Proteus vulgaris [4] = test: Antimicrobial well method, zone of inhibition; type: cell-based
Protocol: as §1

Salmonella paratyphi-B [5] = test: Antimicrobial well method, zone of inhibition; type: cell-based
Protocol: as §1

Salmonella typhimurium [6] = test: Antimicrobial well method, zone of inhibition; type: cell-based; settings: Salmonella enterica
Protocol: as §1

Shigella flexneri [7] = test: Antimicrobial well method, zone of inhibition; type: cell-based
Protocol: as §1

[8] = system: Staphylococcus aureus-MRSA; test: Antimicrobial well method, zone of inhibition; type: cell-based
Protocol: as §1

Staphylococcus aureus [9] = test: Antimicrobial well method, zone of inhibition; type: cell-based
Protocol: as §1

[10] = system: Staphylococcus epidermidis; test: Antimicrobial well method, zone of inhibition; type: cell-based
Protocol: as §1

IMR90 cells = test: Cytotoxicity on normal cells, MTT; type: cell-based; settings: IMR-90, human normal IMR90 cells, 24 h treatment, read-out: IC50 against IMR90
Protocol: as §2

Enterobacter aerogenes [11] = test: Minimum inhibitory concentration (MIC); type: cell-based; settings: Klebsiella aerogenes; Enterobacter aerogenes; read-out: Minimum inhibitory concentration
Protocol: (§3) The MIC experiment was carried out according to the standard reference methods. Briefly, the required concentrations of synthesized compounds 5a–l were dissolved in DMSO (Dimethylsulfoxide) in concentrations of 500 µg/mL, 250 µg/mL, 125 µg/mL, 62.5 µg/mL, 31.25 µg/mL, 15.6 µg/mL, and […]. An inoculum of 100 µL from each well (96-well plate) was inoculated. For the positive control, ketoconazole (fungi) and streptomycin (bacteria) was used. The MIC values for the tested bacteria were identified as the lowest inhibiting concentration of compound on the agar plate in visual growth.

Micrococcus luteus [12] = test: Minimum inhibitory concentration (MIC); type: cell-based; settings: read-out: Minimum inhibitory concentration
Protocol: as §3

Salmonella paratyphi-B [13] = test: Minimum inhibitory concentration (MIC); type: cell-based
Protocol: as §3

Salmonella typhimurium [14] = test: Minimum inhibitory concentration (MIC); type: cell-based; settings: Salmonella enterica, read-out: Minimum inhibitory concentration
Protocol: as §3

Shigella flexneri [15] = test: Minimum inhibitory concentration (MIC); type: cell-based
Protocol: as §3

[16] = system: Staphylococcus aureus-MRSA; test: Minimum inhibitory concentration (MIC); type: cell-based; settings: read-out: Minimum inhibitory concentration
Protocol: as §3

Staphylococcus aureus [17] = test: Minimum inhibitory concentration (MIC); type: cell-based; settings: read-out: Minimum inhibitory concentration
Protocol: as §3

[18] = system: Staphylococcus epidermidis; test: Minimum inhibitory concentration (MIC); type: cell-based; settings: read-out: Minimum inhibitory concentration
Protocol: as §3

Klebsiella pneumoniae [19] = test: Minimum inhibitory concentration (MIC); type: cell-based; settings: read-out: Minimum inhibitory concentration
Protocol: as §3

Proteus vulgaris [20] = test: Minimum inhibitory concentration (MIC); type: cell-based; settings: read-out: Minimum inhibitory concentration
Protocol: as §3

[21] = Homo sapiens, HepG2, 24 h treatment

Compound | zone of inhibition at 1 mg/well (Malassezia pachydermatis) [mm] | melting point [°C] | zone of inhibition (Candida albicans) [mm] | zone of inhibition at 1 mg/well (Enterobacter aerogenes [1]) [mm] | zone of inhibition at 1 mg/well (Klebsiella pneumoniae [2]) [mm] | zone of inhibition at 1 mg/well (Micrococcus luteus [3]) [mm] | zone of inhibition at 1 mg/well (Proteus vulgaris [4]) [mm] | zone of inhibition at 1 mg/well (Salmonella paratyphi-B [5]) [mm] | zone of inhibition at 1 mg/well (Salmonella typhimurium [6]) [mm] | zone of inhibition at 1 mg/well (Shigella flexneri [7]) [mm] | zone of inhibition at 1 mg/well [8] [mm] | zone of inhibition at 1 mg/well (Staphylococcus aureus [9]) [mm] | zone of inhibition at 1 mg/well [10] [mm] | MIC (Enterobacter aerogenes [11]) [µg/mL] | MIC (Micrococcus luteus [12]) [µg/mL] | MIC (Salmonella paratyphi-B [13]) [µg/mL] | MIC (Shigella flexneri [15]) [µg/mL] | MIC ([16]; Staphylococcus aureus-MRSA) [µg/mL] | MIC (Staphylococcus aureus [17]) [µg/mL] | MIC [18] [µg/mL] | other results
CCC(C(=O)OCc1cn(C(c2ccccc2)C(C)N2CCCC2)nn1)c1ccccc1 [5l, (1R,2S)-((1-(1-Phenyl-2-(pyrrolidin-1-yl)propyl)-1H-1,2,3-triazol-4-yl)methyl 2-phenylbutanoate] | 12 | 127 to 129 | – | – | – | – | – | – | – | – | – | – | – | – | – | – | – | – | – | – | –
N.N.[Cl][Pt][Cl] [Cisplatin, reference compound] | – | – | – | – | – | – | – | – | – | – | – | – | – | – | – | – | – | – | – | – | IC50 (A549 cells): 16.4 ± 3.19 µM; IC50 (HepG-2 cells; 24 h treatment): 22.1 ± 3.08 µM
COc1ccc(Br)c(C(=O)OCc2cn(C(c3ccccc3)C(C)N3CCCC3)nn2)c1 [5e, (1R,2S)-(1-(1-Phenyl-2-(pyrrolidin-1-yl)propyl)-1H-1,2,3-triazol-4-yl)methyl-2-bromo-5-methoxy benzoate] | 14 | – | 15 | 10 | 10 | 15 | 13 | 10 | 12 | 15 | 10 | 12 | 10 | – | – | – | – | – | – | – | cytotoxic / anticancer activity against A549 cells (A549 cells): promising anticancer activity; IC50 (A549 cells; Homo sapiens): 130 ± 0.65 µM; cytotoxic activity against HepG-2 cells (HepG-2 cells): moderate activity; IC50 (HepG-2 cells; [21]): 164 ± 2.01 µM; IC50 (IMR90 cells): > 250 µM
C[C@@H]([C@@H](c1ccccc1)n1cc(CC2(O)CCCCC2)nn1)N1CCCC1 [5b, (1R,2S)-1-((1-(1-Phenyl-2-(pyrrolidin-1-yl)propyl)-1H-1,2,3-triazol-4-yl)methyl) cyclohexanol] | – | 137 to 138 | – | 12 | 10 | 13 | 12 | 11 | 11 | – | 12 | 10 | 10 | – | – | – | – | – | – | – | –
C[C@@H]([C@@H](c1ccccc1)n1cc(COC(=O)c2ccccc2)nn1)N1CCCC1 [5d, (1R,2S)-(1-(1-Phenyl-2-(pyrrolidin-1-yl)propyl)-1H-1,2,3-triazol-4-yl)methyl benzoate] | 10 | 129 to 130 | 13 | 10 | – | 19 | – | 14 | 12 | 13 | 16 | 13 | 13 | 500 (≈ 1280 µM) | 62.5 (≈ 160 µM) | 250 (≈ 640 µM) | 250 (≈ 640 µM) | 125 (≈ 320 µM) | 250 (≈ 640 µM) | 250 (≈ 640 µM) | MIC (Salmonella typhimurium [14]; Salmonella typhimurium): 500 µg/mL (≈ 1280 µM)
C[C@@H]([C@@H](c1ccccc1)n1cc(COC(=O)C=Cc2ccccc2)nn1)N1CCCC1 [5c, (1R,2S)-(1-(1-Phenyl-2-(pyrrolidin-1-yl)propyl)-1H-1,2,3-triazol-4-yl)methyl cinnamate] | – | 140 to 141 | – | 14 | 12 | 16 | 10 | 14 | 12 | 13 | 18 | 16 | 15 | 250 (≈ 600 µM) | 125 (≈ 300 µM) | 250 (≈ 600 µM) | 250 (≈ 600 µM) | 125 (≈ 300 µM) | 125 (≈ 300 µM) | 250 (≈ 600 µM) | MIC (Klebsiella pneumoniae [19]): 500 µg/mL (≈ 1200 µM); MIC (Proteus vulgaris [20]): 500 µg/mL (≈ 1200 µM); MIC (Salmonella typhimurium [14]; Salmonella typhimurium): 500 µg/mL (≈ 1200 µM)
CC([C@@H](c1ccccc1)n1cc(CN(C)[C@@H](C)Cc2ccccc2)nn1)N1CCCC1 (stereo partly drawn) [5f, (1R,2S)-N-Methyl-1-phenyl-N-((1-(1-phenyl-2-(pyrrolidin-1-yl)propyl)-1H-1,2,3-triazol-4-yl)methyl)propan-2-amine] | 12 | 118 to 119 | – | – | 18 | 13 | – | 14 | – | 19 | 15 | – | 17 | – | 250 (≈ 599 µM) | 250 (≈ 599 µM) | 62.5 (≈ 150 µM) | 250 (≈ 599 µM) | – | 125 (≈ 299 µM) | MIC (Klebsiella pneumoniae [19]): 125 µg/mL (≈ 299 µM)
[H]/N=C(/N)N[C@H]1[C@H](O)[C@@H](O)[C@H](O[C@@H]2O[C@@H](C)[C@](O)(C=O)[C@H]2O[C@@H]2O[C@@H](CO)[C@H](O)[C@@H](O)[C@@H]2NC)[C@@H](N/C(N)=N\[H])[C@@H]1O [Streptomycin, reference compound] | – | – | – | 22 | 20 | 26 | 30 | 18 | 24 | 30 | 30 | 14 | 26 | 25 (≈ 43 µM) | 6.25 (≈ 10.7 µM) | 30 (≈ 51.6 µM) | 6.25 (≈ 10.7 µM) | – | 6.25 (≈ 10.7 µM) | 25 (≈ 43 µM) | MIC (Klebsiella pneumoniae [19]): 25 µg/mL (≈ 43 µM); MIC (Proteus vulgaris [20]): 6.25 µg/mL (≈ 10.7 µM); MIC (Salmonella typhimurium [14]; TYPHIMURIUM): 6.25 µg/mL (≈ 10.7 µM); MIC ([16]; Staphylococcus, MRSA): 6.25 µg/mL (≈ 10.7 µM)
CC(=O)N1CCN(c2ccc(OCC3COC(Cn4ccnc4)(c4ccc(Cl)cc4Cl)O3)cc2)CC1 (stereo not shown) [Ketoconazole, reference compound] | 26 | – | 28 | – | – | – | – | – | – | – | – | – | – | – | – | – | – | – | – | – | –
CC(C(c1ccccc1)n1cc(COC(=O)c2ccc(C(C)(C)C)cc2)nn1)N1CCCC1 [5i, (1R,2S)-(1-(1-Phenyl-2-(pyrrolidin-1-yl)propyl)-1H-1,2,3-triazol-4-yl)methyl 4-tert-butyl benzoate] | 10 | – | 12 | 14 | 12 | 16 | – | 12 | – | 14 | 14 | 16 | 11 | 250 (≈ 560 µM) | 125 (≈ 280 µM) | 500 (≈ 1120 µM) | 250 (≈ 560 µM) | 250 (≈ 560 µM) | 125 (≈ 280 µM) | 500 (≈ 1120 µM) | MIC (Klebsiella pneumoniae [19]): 500 µg/mL (≈ 1120 µM); cytotoxic / anticancer activity against A549 cells (A549 cells): promising anticancer activity; IC50 (A549 cells; Homo sapiens): 134 ± 1.05 µM; cytotoxic activity against HepG-2 cells (HepG-2 cells): moderate activity; IC50 (HepG-2 cells; [21]): 197 ± 2.34 µM; IC50 (IMR90 cells): > 250 µM
